The experiment deals with Indole amine 2,3-dioxygenase 1 (IDO1) (Homo sapiens, UniProt P14902). Nature of the experiment: IDO1 enzyme. The class given is biochemical.

pIC50: −log10 of the molar value.

Among the data in paper PMC11780470 (ACS Omega, 2025) are IC50 values, retold here.

Indole amine 2,3-dioxygenase 1 (IDO1), sequence (P14902 whole entry): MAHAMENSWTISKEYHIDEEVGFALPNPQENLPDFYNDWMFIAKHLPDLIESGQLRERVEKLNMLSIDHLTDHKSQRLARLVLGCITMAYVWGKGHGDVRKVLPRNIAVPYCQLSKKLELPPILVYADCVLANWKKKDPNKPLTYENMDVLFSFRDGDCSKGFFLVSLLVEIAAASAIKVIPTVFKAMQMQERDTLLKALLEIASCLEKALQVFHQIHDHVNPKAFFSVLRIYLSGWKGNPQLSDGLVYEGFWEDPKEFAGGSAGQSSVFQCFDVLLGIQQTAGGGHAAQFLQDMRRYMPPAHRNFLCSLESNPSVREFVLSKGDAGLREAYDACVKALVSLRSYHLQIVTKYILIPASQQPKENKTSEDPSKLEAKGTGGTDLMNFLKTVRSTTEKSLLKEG

What is called pIC50 is the negative decadic logarithm of the IC50, by convention in mol/L. For `O=C1c2ccccc2-n2c1nc1ccccc1c2=O` [TRYP, indolo [2,1-b]quinazoline-6,12-dione], the pIC50 was 4.76.
